Results on 98 molecules are retold here after ChEMBL document CHEMBL3507680, “University of Dundee, Gates Library screen for HepG2 cell viability”.

Molecules are shown by their SMILES.

The nature of the series: Human HepG2 cell viability assay in 384 well format. The following applies: HepG2 cells, read-out: Inhibition. Set-up: dose 125 nL, time 70.5 hour; concentration not given beside the values. It is filed as toxicity, cell-based.
Take `Cc1nc(C)n(CC2CCCN(c3ccc(C#N)cn3)C2)n1` (stereo not drawn): the cytotoxicity at 70.5 h was -3.58%.

Turning to `Cc1ccoc1C(=O)N1CC[C@H]2C[C@H](c3nnc(C4CC4)o3)O[C@@H]2C1`, the cytotoxicity at 70.5 h was -11.4%.

With `Cn1ccnc1SC1CCc2ccccc2NC1=O` (stereo not drawn), the cytotoxicity at 70.5 h was -23.5%.

Consider `CC(Sc1nc(N)cc(N)n1)c1nc(C(C)(C)C)no1` (stereo not drawn), for which the cytotoxicity at 70.5 h was -2.01%.

For the molecule `CCOC(=O)NCCC(=O)NCc1ccnc(Oc2ccc(F)cc2)c1`, the cytotoxicity at 70.5 h was -1.77%.

For `OCCc1cc(CC2(NCc3ccc(C(F)(F)F)cc3)COC2)no1`, the cytotoxicity at 70.5 h was -6.19%.

On to `C1CC(CN2CC[C@@H]3O[C@@H](c4nnc(C5CC5)o4)C[C@H]3C2)CCO1`, for which the cytotoxicity at 70.5 h was -9.09%.

Consider `CNC(=O)c1cccc(CNC(=O)C2CC(=O)N(CCN(C)C)C2)c1` (stereo not drawn), for which the cytotoxicity at 70.5 h is -5.17%.

`O=C(COCC(=O)N(c1ccccc1)c1ccccc1)N1CCCC1`: the cytotoxicity at 70.5 h was -3.7%.

For `CCOc1ccc(NC(=O)c2cnc(N3CCCC3)nc2C)cc1`, the cytotoxicity at 70.5 h was -15.6%.

`Cc1cc(CN(C)Cc2cc3c(cc2OC(F)F)OCO3)on1`: the cytotoxicity at 70.5 h was -6.95%.

Take `NC(=O)COc1ccc(C(=O)N2CCCC(n3ccnc3)C2)cc1` (stereo not drawn): the cytotoxicity at 70.5 h was -3%.

With `CN1CCC(CNC(=O)c2cccc(CN3CCCCCC3)c2)C1` (stereo not drawn), the cytotoxicity at 70.5 h was -5.88%.

On to `O=C(c1ccncc1)N1CCCC1c1cccc(Br)c1` (stereo not drawn), for which the cytotoxicity at 70.5 h turned out to be 21.6%.

`Cc1c[nH]nc1C1CCCN1Cc1nccn1C` (stereo not drawn): the cytotoxicity at 70.5 h is -4.65%.

Take `O=C(CCn1cnnc1)N1CCCC(c2ncc[nH]2)C1` (stereo not drawn): the cytotoxicity at 70.5 h is -2.12%.

For the molecule `Cc1ccccc1C(NC(=O)CCCS(C)(=O)=O)C(C)(C)C` (stereo not drawn), the cytotoxicity at 70.5 h was 14.3%.

In the case of `Cc1nnc2n1CCN(Cc1ncc(-c3ccc(Cl)cc3)o1)C2`, the cytotoxicity at 70.5 h is -11%.

`CCNS(=O)(=O)C1CCN(C(=O)c2c(F)cc(F)cc2F)C1` (stereo not drawn): the cytotoxicity at 70.5 h is -2.04%.

Regarding `CC(=O)N(CCC(=O)NC1(C#N)CCC1)Cc1ccccc1`, the cytotoxicity at 70.5 h is 21.1%.

As to `CCOCC(O)CN1CCN(C(=O)c2cccc(OC)c2)CC1` (stereo not drawn), the cytotoxicity at 70.5 h is -2.53%.

`O=C1CCCc2[nH]c(=O)c(C(=O)N3CCc4ccccc4C3)cc21`: the cytotoxicity at 70.5 h was determined as 0.27%.

As for `Cc1nc(NCc2nncn2C2CC2)c2c(CC(C)C)csc2n1`, the cytotoxicity at 70.5 h came to 20%.

Turning to `COc1c(C)cnc(CN2CCCC2c2noc(C)n2)c1C` (stereo not drawn), the cytotoxicity at 70.5 h was found to be 3.95%.

For the molecule `O=C(O)c1cc(-c2cn[nH]c2)cc(S(=O)(=O)N2CCSCC2)c1`, the cytotoxicity at 70.5 h was -4.23%.

For `CC(C)Cc1nc(COc2ccc(N(C)C(N)=O)cc2)no1`, the cytotoxicity at 70.5 h was -2.35%.

As to `C=C(C)C(=O)N1CCC(C(=O)c2cc(C)cnc2N)CC1`, the cytotoxicity at 70.5 h worked out at 14.9%.

As for `CCCN(CCC)C(=O)CN(C)C1CCc2ccccc21` (stereo not drawn), the cytotoxicity at 70.5 h is -7.56%.

Take `O[C@@H]1CN(Cc2cccc(F)c2)CC[C@H]1NCc1ccccn1`: the cytotoxicity at 70.5 h was 12.7%.

Regarding `CCS(=O)(=O)N1Cc2nccn2CC(Cn2nc(C)nc2C)C1` (stereo not drawn), the cytotoxicity at 70.5 h is -13.6%.

Turning to `Cc1ccc(CNC(=O)NCc2nccn2C)c(OC(C)(C)C)c1`, the cytotoxicity at 70.5 h is -2.56%.

On to `COCCc1noc(-c2ccc(-c3cc[nH]n3)nc2)n1`, for which the cytotoxicity at 70.5 h was -1.45%.

Consider `CCOC(C)c1noc(CN(C)C(=O)c2cc3ccccn3c2)n1` (stereo not drawn), for which the cytotoxicity at 70.5 h is -3.99%.

Take `CSc1ccc(OCCN2CCNC(=O)C2C)cc1` (stereo not drawn): the cytotoxicity at 70.5 h was -15.5%.

On to `O=c1cc2c(nn1CN1CCOCC1)CCC2`, for which the cytotoxicity at 70.5 h is -3.75%.

In the case of `CCN(Cc1cccc2c1OCO2)C(=O)NCc1ccccn1`, the cytotoxicity at 70.5 h was determined as 13.5%.

In the case of `O=C(NCc1nc(NC2CCCC2)c2cc(Cl)ccc2n1)c1cscn1`, the cytotoxicity at 70.5 h is -2.54%.

For `CC(C)c1nc(CNC(=O)c2ccc(C(C)N3CCCCC3)o2)cs1` (stereo not drawn), the cytotoxicity at 70.5 h was found to be 11.9%.

On to `C[C@H](O)c1cnn(-c2ccccc2)c1`, for which the cytotoxicity at 70.5 h was -1.87%.

`CCc1nc2c(N3CCC4(CC3)CC(=O)N(CC(C)C)C4)ncnc2o1`: the cytotoxicity at 70.5 h was 1.84%.

Take `CC(=O)c1cccc(NC(=O)Cn2nc(-c3cccs3)oc2=O)c1`: the cytotoxicity at 70.5 h was 10.5%.

Take `Cc1nc(CN(Cc2ccccc2)C2CCS(=O)(=O)C2)oc1C` (stereo not drawn): the cytotoxicity at 70.5 h was -0.994%.

For the molecule `O=C(C1CC1)N1CCC(c2nc(O)c3c(n2)CCN(C2CCCC2)C3)C1` (stereo not drawn), the cytotoxicity at 70.5 h was -6.87%.

As to `COCC(O)CNC(=O)c1cc(COc2ccc3c(c2)CCCC3)on1` (stereo not drawn), the cytotoxicity at 70.5 h was -4.42%.

Consider `Cc1cc(C)n(Cc2ccc(C(=O)N3CCOCC3(C)C)cc2)n1`, for which the cytotoxicity at 70.5 h came to 12.1%.

On to `Cc1ccc(C#N)c(N2CCC3(CCCN(C4CCOCC4)C3=O)C2)n1` (stereo not drawn), for which the cytotoxicity at 70.5 h was -1.26%.

On to `CC(C)c1nnc(CN(C)C(c2ccc(F)cc2)c2cccnc2)o1` (stereo not drawn), for which the cytotoxicity at 70.5 h was -2.85%.

As for `CC(C)c1nnc(CN2CCCC2C(=O)OCc2ccccc2)o1` (stereo not drawn), the cytotoxicity at 70.5 h is -10.4%.

`O=C(c1ccc(F)c(F)c1)N1CCCCC1c1nc[nH]n1` (stereo not drawn): the cytotoxicity at 70.5 h is -6.52%.

For `CC(C)(C)NC(=O)N1CCC(Oc2ccc(C(F)(F)F)cn2)CC1`, the cytotoxicity at 70.5 h is -6.24%.

For `CNC(=O)c1ccc(C2CCCN(C(=O)c3sc(C)nc3C)C2)nc1` (stereo not drawn), the cytotoxicity at 70.5 h is 2.08%.

For `Cn1cc(CN2CCc3ncn(C)c3C2COCc2ccccc2)cn1` (stereo not drawn), the cytotoxicity at 70.5 h is 2.01%.

For `CN(C)[C@@H]1CCN(C(=O)c2ccccn2)[C@H]1Cc1ccncc1`, the cytotoxicity at 70.5 h was -13%.

For the molecule `CC(NC(=O)NCCN1CCCCCC1=O)c1nncn1C` (stereo not drawn), the cytotoxicity at 70.5 h was 7.16%.

On to `NC(=O)c1cc2c(nc1-c1ccc3c(c1)OCCO3)CCC2`, for which the cytotoxicity at 70.5 h was -9.8%.

Consider `CCS(=O)(=O)N1Cc2c(Cn3ccnc3)nn(C)c2C1`, for which the cytotoxicity at 70.5 h was -2.09%.

Take `O=C(CC[C@@H]1CCCN2CCCC[C@H]12)N1CCC(c2nnc[nH]2)CC1`: the cytotoxicity at 70.5 h was -7.68%.

For `Cc1cc(C(=O)N2C[C@H]3CC[C@@H]2CN(Cc2ccccn2)C3)nc(N)n1`, the cytotoxicity at 70.5 h stood at 23.1%.

As for `CCSc1ccc(C(=O)NCCc2nnc(-c3ccco3)[nH]2)cn1`, the cytotoxicity at 70.5 h was -6.64%.

Regarding `CCC(C)NC(=O)CN1CCOCC1` (stereo not drawn), the cytotoxicity at 70.5 h is -5.48%.

Take `O=C(CC1=CCCCC1)NCc1ccnc(OC2CCOCC2)c1`: the cytotoxicity at 70.5 h was -6.35%.

Consider `CC(C)c1nc(CN2CCN(CC(O)c3ccccc3)CC2)no1` (stereo not drawn), for which the cytotoxicity at 70.5 h was -4.77%.

Consider `Cc1cccc(CNCCOc2ccc(S(C)(=O)=O)cc2)c1`, for which the cytotoxicity at 70.5 h is -0.853%.

Regarding `O=C(CS(=O)(=O)Cc1ccccc1)NCc1ccccc1F`, the cytotoxicity at 70.5 h amounted to 22.1%.

As to `O=C1CCCN1CCN1CC[C@@]2(O)CCN(c3ncccn3)C[C@H]2C1`, the cytotoxicity at 70.5 h was found to be 15.5%.

For the molecule `CCN1C(=O)C2(CCOCC2)c2cc(NC(=O)c3csnn3)ccc21`, the cytotoxicity at 70.5 h stood at 8.75%.

`COCCN1CCO[C@@H]2CN(C(=O)Cc3cccc(F)c3)CC[C@@H]2C1`: the cytotoxicity at 70.5 h is -0.585%.

`CC(C)(C)c1csc(CCNC(=O)C(c2ccccc2)n2cnnn2)n1` (stereo not drawn): the cytotoxicity at 70.5 h was -0.915%.

Consider `NC(=O)CCN1C(=O)CC(Cc2ccc(F)cc2)C1=O` (stereo not drawn), for which the cytotoxicity at 70.5 h was -11.2%.

Regarding `Cc1csc(C2CCCN(C(=O)Cn3ccccc3=O)C2)n1` (stereo not drawn), the cytotoxicity at 70.5 h is -3.71%.

For the molecule `CC(C(=O)Nc1ccc(N2CCCCC2)nc1)n1cncn1` (stereo not drawn), the cytotoxicity at 70.5 h was determined as 26.7%.

In the case of `CCCc1nn(C2CCN(C(C)C)C2=O)c(=O)o1` (stereo not drawn), the cytotoxicity at 70.5 h was -1.04%.

Take `Cc1cnn(CCNCC(O)COc2cc(Cl)ccc2Cl)c1` (stereo not drawn): the cytotoxicity at 70.5 h is -14.6%.

On to `CCS(=O)(=O)N1C[C@@H]2COC[C@@H](Cc3nc(C)no3)[C@@H]2C1`, for which the cytotoxicity at 70.5 h is -2.03%.

`CCc1nccn1C1CCCN(C(=O)c2ccn(C)c(=O)c2)C1` (stereo not drawn): the cytotoxicity at 70.5 h was -0.0555%.

As to `CN(C)S(=O)(=O)N1CCCC(c2cccc(Cc3ccccc3)n2)C1` (stereo not drawn), the cytotoxicity at 70.5 h stood at 19%.

As to `Fc1cccc2ncnc(NCCCc3ccncc3)c12`, the cytotoxicity at 70.5 h was -4.44%.

`O=C(c1ccco1)N1C[C@H]2CCCN(Cc3nccs3)[C@H]2C1`: the cytotoxicity at 70.5 h is -11.3%.

With `O=C(NCc1cccnc1)[C@@H]1C[C@H]2[C@H](CCN2c2ncccn2)O1`, the cytotoxicity at 70.5 h is -3%.

Consider `Cc1ccc(C)c(OCC(O)Cn2ncc3cnn(C)c(=O)c32)c1` (stereo not drawn), for which the cytotoxicity at 70.5 h was 6.69%.

In the case of `Cc1ncc(C(=O)NCCNC(=O)c2ccccc2)s1`, the cytotoxicity at 70.5 h was -6.97%.

As to `CCc1cc(NCCc2ccc(O)cc2)n2nccc2n1`, the cytotoxicity at 70.5 h came to 2.9%.

Turning to `Cc1oncc1C(=O)N[C@@H]1CN(CC2CC2)C[C@@H]2CCCO[C@@H]21`, the cytotoxicity at 70.5 h is -10.1%.

With `CC(=O)N1CCCC2(CCN(C(=O)c3nccnc3N)CC2)C1`, the cytotoxicity at 70.5 h stood at 26.1%.

Take `COc1ccc(C)cc1CC(=O)Nc1cc(C)n[nH]1`: the cytotoxicity at 70.5 h is -8.99%.

Regarding `CC(C)NC(=O)N1CCc2ncnc(-c3ccncc3)c2CC1`, the cytotoxicity at 70.5 h was -3.38%.

For the molecule `Fc1cnc(N2CCO[C@H]3CN(CC4CCOC4)C[C@H]32)nc1` (stereo partly drawn), the cytotoxicity at 70.5 h was determined as 26.2%.

As for `CS(=O)(=O)NC1CCc2[nH]c(=O)ccc2C1` (stereo not drawn), the cytotoxicity at 70.5 h is -4.24%.

For the molecule `Cc1ccccc1OCC1CCCN(C(=O)Cc2c[nH]c(=O)[nH]c2=O)C1` (stereo not drawn), the cytotoxicity at 70.5 h was -0.878%.

With `COc1ccc(-c2nnc(CN3CCNC(=O)C3)o2)cc1`, the cytotoxicity at 70.5 h is -2.61%.

Regarding `Cc1ccc(-n2c(C)nnc2SCC(O)COCc2ccco2)cc1` (stereo not drawn), the cytotoxicity at 70.5 h was -5.42%.

As to `O=C(c1cnccn1)N1CC[C@H]2[C@H]1CCN2S(=O)(=O)C1CC1`, the cytotoxicity at 70.5 h was -4.25%.

In the case of `COc1ccc(CC(=O)NCCNS(=O)(=O)c2ccc(C)cc2)cc1`, the cytotoxicity at 70.5 h was 2.16%.

For `CC(C)NC(=O)NCc1cc(-c2cccc(Cl)c2)nn1C`, the cytotoxicity at 70.5 h came to 7.95%.

With `O=C(c1ccncc1F)N1CC[C@@H]2OC(COCC3CC3)CC[C@@H]21` (stereo partly drawn), the cytotoxicity at 70.5 h came to 5.27%.

On to `CC(=O)N1CCC(CCNC(C)c2cc(F)cc(F)c2)CC1` (stereo not drawn), for which the cytotoxicity at 70.5 h was -3.81%.

As to `CC(c1nccs1)N(C)Cc1ccc(CCC(C)(C)O)cc1` (stereo not drawn), the cytotoxicity at 70.5 h stood at 0.285%.

In the case of `CNC(=O)CN1CCOCC2(CCCN(Cc3ccc(F)cc3)C2)C1` (stereo not drawn), the cytotoxicity at 70.5 h is -9.75%.
